Results reported in patent US20120301468A1, “ANTI-MN ANTIBODIES AND METHODS OF USING SAME” (BAYER HEALTHCARE LLC, priority 2005, published 2012).

Key:
[1] = tested on: MN-expressing cells (PC3 mm2); assay: Antibody internalization (Cellomics), PC3 mm2; assay type: cell-based, human
[2] = tested on: MN-expressing cells (PC3 mm2); assay: Spindle formation / tubulin staining, Pc3 mm2; assay type: cell-based, human; settings: tubulin stained with fluorescence labeled antibody
Source text: The cytotoxic drug MMAE delivered by 3ee9/MMAE is a tubulin inhibitor that prevents spindle formation during cell mitosis resulting in G2/M arrest. The tubulin is stained with florescence labeled antibody. […] These studies confirmed that the antibody drug conjugate 3ee9/MMAE kills cell through targeted tubulin disruption.

[3] = tested on: Colo-205 CRC xenograft; assay: Colo-205 subcutaneous xenograft model
Source text: The in vivo anti-tumor effect of 3ee9/MMAE was examined in 6 different human xenograft tumor models. These models were established through subcutaneous implantation of human tumor cells into female athymic NCr (nu/nu) mice (Taconic, N.Y.). The human tumor xenograft models evaluated included the MaTu human mammary carcinoma model, the HT-29 and Colo-205 human colo-rectal carcinoma (CRC) models, PC3MM2 prostate carcinoma model, the HCT-15 multi-drug resistant (P-gp) CRC model, and the MiaPaCa2 human pancreatic model. PBS was used as a vehicle, and dosing solutions were prepared fresh daily. The dosing volume was 0.1 mL/10 g (10 mL/kg).
The length and width of each tumor were measured using an electronic caliper 2-3 times per week, and tumor weights (mg) were calculated based on the formula of [length (mm)×width (mm)^2]/2. All data, including daily observations, obtained throughout the course of the study were documented in Anti-tumor Data Acquisition System (ADAS). […] Tumor growth inhibition (TGI) was calculated as (1-T/C)×100, where T=final tumor weights from a treated group after the last dose, and C=final tumor weights from the control group after the last dose. In addition, anti-tumor efficacy was measured as the incidence of responses (or responders or regressions) defined as tumors with ≦50% of their initial size. A minimum duration of 7 days is required for a response to be considered durable.
The anti-tumor activity of 3ee9/MMAE was next evaluated against human prostate (PC-3 mm2) and CRC (Colo-205) tumor xenografts. Female NCr nu/nu mice were implanted subcutaneously (s.c.) either with 5×10^6 PC3 mm2 or Colo-205 cells. Treatment was initiated when tumors were of an average size of approximately 125-150 mg. The general health of mice was monitored and recorded daily. Tumor dimensions and body weights were recorded twice a week starting with the first day of treatment.
In the PC3 mm2 and Colo-205 studies, 3ee9/MMAE was administered intravenously (i.v.) once every 4th day for a total of 3 injections (Q4Dx3) at doses of 1, 3, 10 and 30 mg/kg and 1.25, 2.5, 5 and 10 mg/kg, respectively.
The feasibility of using 3ee9/MMAE in conjunction with other cancer chemotherapeutic agents was investigated. Xeloda® is used as first line treatment of patients with metastatic colorectal carcinoma. The activity and tolerability of combined therapy using 3ee9/MMAE and Xeloda® was evaluated. 3ee9/MMAE was administered i.v. on a Q4Dx3 schedule and at dose levels of 1.25, 2.5 and 10 mg/kg. Xeloda® was administered orally once daily for 9 days at dose levels of 250 and 500 mg/kg.

[4] = tested on: HCT-15 multi-drug resistant (P-gp) CRC xenograft; assay: HCT-15 multi-drug resistant xenograft model; assay type: in vivo, NCr nu/nu mice; settings: HCT-15 MDR model
Procedure: To examine the effect of 3ee9/MMAE in a multi-drug resistance model, female NCr nu/nu mice were implanted subcutaneously (s.c.) with 5×10^6 HCT-15 cells. HCT-15 is a multi-drug resistant (MDR) line that over-expresses P-glycoprotein (P-gp). […] 3ee9/MMAE, Taxol, and Gemcitabine were administered when mice had established tumors with mean weight of ˜150 mg. Gemcitabine, a pyrimidine analog that is not a P-gp substrate was used as a positive control.

[5] = tested on: low MN-expressing MIAPaCa2 pancreatic xenograft; assay: MIAPaCa2 xenograft model; assay type: in vivo, mice
Procedure: To better understand the relationship between MN expression and antitumor efficacy, xenograft efficacy studies were conducted using a low MN-expressing pancreatic model, MIAPaCa2 and high MN-expressing huMN-MIAPaCa2 model. This latter line was derived by engineering the MIAPaCa2 line to stably express MN. […] 3ee9/MMAE dosed at 10 mg/kg only produced 50% TGI.

[6] = Colo-205, 1.25 mg/kg/inj Q4D × 3 IV
[7] = Colo-205, 2.5 mg/kg/inj Q4D × 3 IV
[8] = Colo-205, 10 mg/kg/inj Q4D × 3 IV

3ee9/MMAE: human anti-MN IgG1 antibody 3ee9 conjugated to Monomethylauristatin E (MMAE)
internalization [1]: selectively internalized
effect on spindle formation [2]: fragmented fibers resulting from tubulin binding with MMAE and prevention of normal spindle formation
% Inhibition (T/C) (d 17) [3, 6]: 30.6%
% Regressions [3, 6]: 0%
% Weight Loss (d 17) [3, 6]: 0.5%
TGI ([3]; Colo-205, 2.5 mg/kg i.v. Q4Dx3, end of dosing): > 70%
% Inhibition (T/C) (d 17) [3, 7]: 73%
% Regressions [3, 7]: 0%
% Weight Loss (d 17) [3, 7]: 0.1%
responses (regressions) ([3]; Colo-205, 5 mg/kg Q4Dx3): 40%
responses (regressions) ([3]; Colo-205, 10 mg/kg Q4Dx3): 80%
% Inhibition (T/C) (d 17) [3, 8]: 96.2%
% Regressions [3, 8]: 80%
% Weight Loss (d 17) [3, 8]: 0.9%
TGI ([3]; Colo-205, 5 and 10 mg/kg i.v. Q4Dx3, end of dosing): > 90%
TGI ([3]; Colo-205, alone 1.25 mg/kg i.v. Q4Dx3): 31%
TGI ([3]; Colo-205, alone 2.5 mg/kg i.v. Q4Dx3): 73%
response rate ([3]; Colo-205, alone 10 mg/kg): 80%
TGI ([3]; Colo-205, alone 10 mg/kg i.v. Q4Dx3): 96%
anti-tumor effect ([3]; Colo-205, lowest dose, 1 mg/kg): relatively ineffective
anti-tumor effects ([3]; Colo-205 human colo-rectal cancer xenograft model): anti-tumor effects were seen
anti-tumor effect [4]: failed to produce any significant anti-tumor effect
effect in inhibiting growth [5]: minimal effect
